From US20180042931A1 (Bayer Pharma Aktiengesellschaft, priority 2015, published 2018)

How the values were obtained:
[1] = test system: constitutive active colorectal cancer cell (CRC) Wnt pathway; assay: Cellular reporter assay, HCT116 cells stably transfected with Super TopFlash vector (HCT116-TOP), luciferase readout; format: cell-based; conditions: Homo sapiens, HCT-116, 36 hours incubation, luciferase expression, average or median values
Protocol: In order to discover and characterize small molecules which inhibit the constitutive active colorectal cancer cell (CRC) Wnt pathway, a cellular reporter assay was employed. The corresponding assay cell was generated by transfection of the colorectal cancer cell line HCT116 (ATCC, #CCL-247) with the Super TopFlash vector (Morin, Science 275, 1997, 1787-1790; Molenaar et al., Cell 86 (3), 1996, 391-399). The HCT116 cell line is cultivated at 37° C. and 5% CO2 in DMEM/F-12 (Life Technologies, #11320-074), supplemented with 2 mM glutamine, 20 mM HEPES, 1.4 mM pyruvate, 0.15% Na-bicarbonate and 10% foetal bovine serum (GIBCO, #10270), this cancer cell line is pathophysiological relevant since it carries a deletion of position S45 in the β-catenin gene, leading to constitutive active Wnt signaling. Stable transfectants were generated by cotransfection with pcDNA3 and selection of stable transfected cells with 1 mg/mL G418.
(§1) In preparation of the assay, the two cell lines were plated 24 hours before at 10000 cells per well of a 384 micro titre plate (MTP) in 30 μL growth medium. Selective inhibitory activity for small molecules on the mutated Wnt pathway was determined after parallel incubation of both (TOP and FOP) HCT116 reporter cell lines with a compound dilution series from 50 μM to 15 nM in steps of 3.16-fold dilutions in CAFTY buffer (130 mM NaCl, 5 mM KCl, 20 mM HEPES, 1 mM MgCl2, 5 mM NaHCO3, pH 7.4) containing 2 mM Ca^2+ and 0.01% BSA. The compounds were thereby serially prediluted in 100% DMSO and thereafter in addition 50 fold into the CAFTY compound dilution buffer (described above). From this dilution 10 μL were added to the cells in 30 μL growth medium and incubated for 36 hours at 37° C. and 5% CO2. Thereafter luciferase assay buffer (1:1 mixture of luciferase substrate buffer (20 mM Tricine, 2.67 mM MgSO4, 0.1 mM EDTA, 4 mM DTT, 270 μM Coenzyme A, 470 μM Luciferin, 530 μM ATP, ph adjusted to pH 7.8 with a sufficient volume of 5M NaOH) and Triton buffer (30 mL Triton X-100, 115 mL glycerol, 308 mg Dithiothreitol, 4.45 g Na2HPO4.2H2O, 3.03 g TRIS HCl, ad 1I H2O, pH 7.8) was added as equal volume to the compound solution on the cells to determine luciferase expression as a measure of Wnt signaling activity in a luminometer.

[2] = test system: FOP control vector (randomized, non-functional sequence instead of functional TCF elements) in HCT116 cells; assay: Control reporter assay, HCT116 cells stably transfected with FOP control vector (HCT116-FOP), luciferase readout; format: cell-based; conditions: Homo sapiens, HCT-116, 36 hours incubation, luciferase expression, dilution series up to 50 μM
Protocol: In a parallel approach, HCT116 cells were cotransfected with the FOP control vector and pcDNA3. The FOP vector is identical to the TOP construct, but it contains instead of functional TCF elements a randomized, non-functional sequence. For this transfection a stable transfected cell line was generated as well.
as §1

IC50 [1] [nM]	IC50 [2] [nM]	Compound
49	≥ 50000	Nc1ncc(-c2ccc(NC(=O)c3ccc(OC(F)(F)F)c(NC(=O)CN4CCOCC4)c3)cc2)cn1 [Example 3, N-[4-(2-aminopyrimidin-5-yl)phenyl]-3-[(morpholin-4-ylacetyl)amino]-4-(trifluoromethoxy)-benzamide]
160	≥ 50000	Cn1cc(-c2ccc(NC(=O)c3ccc(OC(F)(F)F)c(NC(=O)CN4CCOCC4)c3)cc2)cn1 [Example 5, N-[4-(1-methyl-1H-pyrazol-4-yl)phenyl]-3-[(morpholin-4-ylacetyl)amino]-4-(trifluoromethoxy)-benzamide]
180	≥ 50000	O=C(CN1CCOCC1)Nc1cc(C(=O)Nc2ccc(-c3cn[nH]c3)cc2)ccc1OC(F)(F)F [Example 6, 3-[(morpholin-4-ylacetyl)amino]-N-[4-(1H-pyrazol-4-yl)phenyl]-4-(trifluoromethoxy)benzamide]
22.8	≥ 50000	Nc1ccc(-c2ccc(NC(=O)c3ccc(OC(F)(F)F)c(NC(=O)CN4CCOCC4)c3)cc2)cn1 [Example 7, N-[4-(6-aminopyridin-3-yl)phenyl]-3-[(morpholin-4-ylacetyl)amino]-4-(trifluoromethoxy)benzamide]
66.5	≥ 50000	O=C(CN1CCOCC1)Nc1cc(C(=O)Nc2ccc(-c3cncnc3)cc2)ccc1OC(F)(F)F [Example 8, 3-[(morpholin-4-ylacetyl)amino]-N-[4-(pyrimidin-5-yl)phenyl]-4-(trifluoromethoxy)benzamide]
410	≥ 50000	COc1ncc(-c2ccc(NC(=O)c3ccc(OC(F)(F)F)c(NC(=O)CN4CCOCC4)c3)cc2)cn1 [Example 9, N-[4-(2-methoxypyrimidin-5-yl)phenyl]-3-[(morpholin-4-ylacetyl)amino]-4-(trifluoromethoxy)-benzamide]
60.9	≥ 50000	CN(C)c1ncc(-c2ccc(NC(=O)c3ccc(OC(F)(F)F)c(NC(=O)CN4CCOCC4)c3)cc2)cn1 [Example 10, N-{4-[2-(dimethylamino)pyrimidin-5-yl]phenyl}-3-[(morpholin-4-ylacetyl)amino]-4-(trifluoromethoxy)benzamide]
200	≥ 50000	O=C(CN1CCOCC1)Nc1cc(C(=O)Nc2ccc(-c3cnc(N4CCC4)nc3)cc2)ccc1OC(F)(F)F [Example 11, N-{4-[2-(azetidin-1-yl)pyrimidin-5-yl]phenyl}-3-[(morpholin-4-ylacetyl)amino]-4-(trifluoromethoxy)benzamide]
2660	32000	O=C(CN1CCOCC1)Nc1cc(C(=O)Nc2ccc(-c3cnc(C(F)(F)F)nc3)cc2)ccc1OC(F)(F)F [Example 12, 3-[(morpholin-4-ylacetyl)amino]-4-(trifluoromethoxy)-N-{4-[2-(trifluoromethyl)pyrimidin-5-yl]phenyl}benzamide]
557	≥ 50000	Cc1ccc(-c2ccc(NC(=O)c3ccc(OC(F)(F)F)c(NC(=O)CN4CCOCC4)c3)cc2)cn1 [Example 13, N-[4-(6-methylpyridin-3-yl)phenyl]-3-[(morpholin-4-ylacetyl)amino]-4-(trifluoromethoxy)benzamide]

The next lines start with the compound.

Compound	IC50 [1] [nM]	IC50 [2] [nM]
COc1ccc(NC(=O)c2ccc(-c3ccc(N)nc3)cc2)cc1NC(=O)CN1CCOCC1 [Example 1, 4-(6-aminopyridin-3-yl)-N-{4-methoxy-3-[(morpholin-4-ylacetyl)amino]phenyl}benzamide]	625	≥ 50000
COc1ccc(NC(=O)c2ccc(-c3cncnc3)cc2)cc1NC(=O)CN1CCOCC1 [Example 2, N-{4-methoxy-3-[(morpholin-4-ylacetyl)amino]phenyl}-4-(pyrimidin-5-yl)benzamide]	3110	≥ 50000
O=C(CN1CCOCC1)Nc1cc(C(=O)Nc2ccc(-c3cccnc3F)cc2)ccc1OC(F)(F)F [Example 4, N-[4-(2-fluoropyridin-3-yl)phenyl]-3-[(morpholin-4-ylacetyl)amino]-4-(trifluoromethoxy)benzamide]	14.8	≥ 50000
O=C(CN1CCOCC1)Nc1cc(C(=O)Nc2ccc(-c3ccc(CO)nc3)cc2)ccc1OC(F)(F)F [Example 14, N-{4-[6-(hydroxymethyl)pyridin-3-yl]phenyl}-3-[(morpholin-4-ylacetyl)amino]-4-(trifluoromethoxy)benzamide]	377	≥ 50000
COc1ccc(-c2ccc(NC(=O)c3ccc(OC(F)(F)F)c(NC(=O)CN4CCOCC4)c3)cc2)cn1 [Example 15, N-[4-(6-methoxypyridin-3-yl)phenyl]-3-[(morpholin-4-ylacetyl)amino]-4-(trifluoromethoxy)benzamide]	545	≥ 50000
Cc1ncccc1-c1ccc(NC(=O)c2ccc(OC(F)(F)F)c(NC(=O)CN3CCOCC3)c2)cc1 [Example 16, N-[4-(2-methylpyridin-3-yl)phenyl]-3-[(morpholin-4-ylacetyl)amino]-4-(trifluoromethoxy)benzamide]	117	41500
COc1ncccc1-c1ccc(NC(=O)c2ccc(OC(F)(F)F)c(NC(=O)CN3CCOCC3)c2)cc1 [Example 17, N-[4-(2-methoxypyridin-3-yl)phenyl]-3-[(morpholin-4-ylacetyl)amino]-4-(trifluoromethoxy)-benzamide]	285	≥ 50000
O=C(CN1CCOCC1)Nc1cc(C(=O)Nc2ccc(-c3cccnc3)cc2)ccc1OC(F)(F)F [Example 18, 3-[(morpholin-4-ylacetyl)amino]-N-[4-(pyridin-3-yl)phenyl]-4-(trifluoromethoxy)benzamide]	78.7	≥ 50000
Nc1ncc(-c2ccc(NC(=O)c3ccc(OC(F)(F)F)c(NC(=O)C4(N5CCOCC5)CC4)c3)cc2)cn1 [Example 19, N-[4-(2-aminopyrimidin-5-yl)phenyl]-3-({[1-(morpholin-4-yl)cyclopropyl]carbonyl}amino)-4-(trifluoromethoxy)benzamide]	3.2	≥ 50000
O=C(Nc1ccc(-c2cccnc2F)cc1)c1ccc(OC(F)(F)F)c(NC(=O)C2(N3CCOCC3)CC2)c1 [Example 20, N-[4-(2-fluoropyridin-3-yl)phenyl]-3-({[1-(morpholin-4-yl)cyclopropyl]carbonyl}amino)-4-(trifluoromethoxy)benzamide]	3.15	≥ 50000
Nc1ccc(-c2ccc(NC(=O)c3ccc(OC(F)(F)F)c(NC(=O)C4(N5CCOCC5)CC4)c3)cc2)cn1 [Example 21, N-[4-(6-aminopyridin-3-yl)phenyl]-3-({[1-(morpholin-4-yl)cyclopropyl]carbonyl}amino)-4-(trifluoromethoxy)benzamide]	4.55	46500
O=C(Nc1ccc(-c2cccnc2F)cc1)c1ccc(Cl)c(NC(=O)C2(N3CCOCC3)CC2)c1 [Example 22, 4-chloro-N-[4-(2-fluoropyridin-3-yl)phenyl]-3-({[1-(morpholin-4-yl)cyclopropyl]carbonyl}amino)-benzamide]	140	≥ 50000
Nc1ncc(-c2ccc(NC(=O)c3ccc(Cl)c(NC(=O)C4(N5CCOCC5)CC4)c3)cc2)cn1 [Example 23, N-[4-(2-aminopyrimidin-5-yl)phenyl]-4-chloro-3-({[1-(morpholin-4-yl)cyclopropyl]carbonyl}amino)-benzamide]	26.2	≥ 50000
